# Laboratory results: US20150344457A1, “METHODS OF INHIBITING PRMT5” (EPIZYME, INC., priority 2012, published 2015)
# pEC50: −log10 of the molar value.
# Tested on: Z-138 cells
# Test: Z-138 Methylation Assay (In Cell Western for symmetric di-methyl arginine and DNA content)
# Format: cell-based
# Details: Homo sapiens, Table A-2, 96 hours, symmetric di-methyl arginine, read-out: ICW EC50
# Outline: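 Z-138 cells at 50,000 cells/mL exposed to compound 96 h at 37 °C, then attached to poly-D-lysine plates, fixed with paraformaldehyde and probed with anti-symmetric di-methyl arginine plus DRAQ5 DNA stain. 800/700 nm ratio normalized to DMSO and 3 μM reference controls; IC50 from triplicate wells.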
row,Structure (SMILES),pEC50
1,O=C(COc1cccc2c1CNCC2)NCC(O)CN1CCc2ccccc2C1 (centres unmarked) [Compound A119],6.00 to 7.00
2,CN1CCc2cccc(OCC(=O)NCC(O)CN3CCc4ccccc4C3)c2C1 (centres unmarked) [Compound A120],5.00 to 6.00
3,O=C(COc1cccc2c1OCC(=O)N2)NCC(O)CN1CCc2ccccc2C1 (centres unmarked) [Compound A124],5.00 to 6.00
4,CN(C)c1ncccc1OCC(=O)NCC(O)CN1CCc2ccccc2C1 (centres unmarked) [Compound A127],5.00 to 6.00
5,O=C(COc1cccc2ncc(=O)[nH]c12)NCC(O)CN1CCc2ccccc2C1 (centres unmarked) [Compound A129],5.00 to 6.00
6,CN1CCCC(c2ccccc2OCC(=O)NCC(O)CN2CCc3ccccc3C2)C1 (centres unmarked) [Compound A130],6.00 to 7.00
7,CN1CCC(c2ccccc2OCC(=O)NCC(O)CN2CCc3ccccc3C2)CC1 (centres unmarked) [Compound A134],5.00 to 6.00

# Other lines, results leading:
row,pEC50,Structure (SMILES)
1,5.00 to 6.00,CC(=O)N1CCN(S(=O)(=O)c2ccccc2OCC(=O)NCC(O)CN2CCc3ccccc3C2)CC1 (centres unmarked) [Compound A122]
2,6.00 to 7.00,CNS(=O)(=O)c1ccccc1OCC(=O)NCC(O)CN1CCc2ccccc2C1 (centres unmarked) [Compound A123]
3,5.00 to 6.00,O=C(COc1ccccc1-c1ncc[nH]1)NCC(O)CN1CCc2ccccc2C1 (centres unmarked) [Compound A137]
4,6.00 to 7.00,CN(c1cccc(OCC(=O)NCC(O)CN2CCc3ccccc3C2)c1)S(C)(=O)=O (centres unmarked) [Compound A142]
